The term IC50 denotes the concentration at which inhibition is half-maximal.

Values joined by “and” are separate entries in the source; they are usually repeats but may differ in a detail not shown here. Equal entries are not always repeated. Structures can show the parent of a compound that is named as a salt.

This passage reports IC50 results from patent US20040082551A1, “Novel pyrazoles and their use as p38 kinase inhibitors” (priority 2002, published 2004).

The target in the first experiment is T1, human p38 kinase alpha (Homo sapiens, UniProt Q16539).
T1 construct: The coding region of the human p38α cDNA was obtained by PCR-amplification from RNA isolated from the human monocyte cell line THP.1; made in house; host or cells: E. coli DH10B
T1 sequence (Q16539 whole entry): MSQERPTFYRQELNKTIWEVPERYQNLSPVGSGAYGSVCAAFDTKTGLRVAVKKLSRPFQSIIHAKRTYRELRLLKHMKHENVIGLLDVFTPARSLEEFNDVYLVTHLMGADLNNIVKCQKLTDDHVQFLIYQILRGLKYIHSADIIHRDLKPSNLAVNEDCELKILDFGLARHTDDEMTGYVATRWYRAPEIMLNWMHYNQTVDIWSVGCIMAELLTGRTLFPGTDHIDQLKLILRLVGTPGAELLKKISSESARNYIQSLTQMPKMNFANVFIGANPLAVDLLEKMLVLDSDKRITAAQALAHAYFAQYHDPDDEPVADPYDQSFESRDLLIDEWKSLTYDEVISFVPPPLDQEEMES
The experiment can be described thus: In vitro p38 kinase inhibition analysis (PHAS-I 32P-ATP or EGFRP 33P-ATP format). In kind it is biochemical. The settings on record: Table 1; compounds of Examples 1-28; one of two in vitro assay methods; Hydrochloride Hydrate; read-out: p38α Kinase Inhibition (IC50 in μM). As for the experimental part: The ability of compounds to inhibit human p38 kinase alpha was evaluated using one of two in vitro assay methods. In the first method, activated human p38 kinase alpha phosphorylates a biotinylated substrate, PHAS-I (phosphorylated heat and acid stable protein-insulin inducible), in the presence of gamma ^32P-ATP (^32P-ATP). PHAS-I was biotinylated before the assay, and provided a means of capturing the substrate which was phosphorylated during the assay. p38 Kinase was activated by MKK6. Compounds were tested in 10 fold serial dilutions over the range of 100 μM to 0.001 μM using 1% DMSO. Each concentration of inhibitor was tested in triplicate.
All reactions were carried out in 96 well polypropylene plates. Each reaction well contained 25 mM HEPES pH 7.5, 10 mM magnesium acetate, and 50 μM unlabeled ATP. […] Activated human p38 kinase alpha was used at 1 μg per 50 μl reaction volume, representing a final concentration of 0.3 μM. Gamma ^32P-ATP was used to follow the phosphorylation of PHAS-I. ^32P-ATP has a specific activity of 3000 Ci/mmol, and was used at 1.2 μCi per 50 μl reaction volume. The reaction proceeded either for one hr or overnight at 30° C.
Following incubation, 20 μl of reaction mixture was transferred to a high capacity streptavidin coated filter plate (SAM-streptavidin-matrix, Promega) prewetted with phosphate buffered saline. The transferred reaction mix was allowed to contact the streptavidin membrane of the Promega plate for 1-2 min. […] Filter plates were air dried and 20 μl of scintillant was added. The plates were sealed and counted.
A second assay format was alternatively employed. This assay is based on p38 kinase alpha being induced phosphorylation of EGFRP (epidermal growth factor receptor peptide, a 21 mer) in the presence of ^33P-ATP. Compounds were tested in 10 fold serial dilutions over the range of 100 μM to 0.001 μM in 10% DMSO. Each concentration of inhibitor was tested in triplicate. Compounds were evaluated in 50 μl reaction volumes in the presence of 25 mM HEPES pH 7.5, 10 mM magnesium acetate, 4% glycerol, 0.4% bovine serum albumin, 0.4 mM DTT, 50 μM unlabeled ATP, 25 μg EGFRP (200 μM), and 0.05 uCi gamma ^33P-ATP. Reactions were initiated by addition of 0.09 μg of activated, purified human GST-p38 kinase alpha. Activation was carried out using GST-MKK6 (5:1,p38:MKK6) for one hr at 30° C. in the presence of 50 μM ATP. Following incubation for 60 min at room temperature, the reaction was stopped by addition of 150 μl of AG 1×8 resin in 900 mM sodium formate buffer, pH 3.0 (1 volume resin to 2 volumes buffer). The mixture was mixed three times with pipetting. Afterward, the resin was allowed to settle. A total of 50 μl of clarified solution head volume was transferred from the reaction wells to Microlite-2 plates. 150 μl of Microscint 40 was then added to each well of the Microlite plate, and the plate was sealed, mixed, and counted.
For the compound `OC[C@H]1CCCN1[C@H]1CC[C@H](c2[nH]nc(-c3ccc(Cl)cc3)c2-c2ccncn2)CC1` [Example 10, ((2R)-1-{4-[3-(4-chlorophenyl)-4-pyrimidin-4-yl-1H-pyrazol-5yl]cyclohexyl}pyrrolidin-2-yl)methanol Hydrochloride Hydrate], the IC50 was found to be 0.0354 µM.

Still in this experiment, the particulars now being: Table 1; compounds of Examples 1-28; one of two in vitro assay methods; Trifluoroacetate Hydrate; read-out: p38α Kinase Inhibition (IC50 in μM).
Regarding `CN(CCO)[C@H]1CC[C@H](c2[nH]nc(-c3ccc(Cl)cc3)c2-c2ccncn2)CC1` [Example 11, 2-[{4-[3-(4-chlorophenyl)-4-pyrimidin-4-yl-1 H-pyrazol-5-yl]cyclohexyl)(methyl)amino]ethanol Trifluoroacetate Hydrate], the 50% inhibitory concentration (IC50) worked out at 0.0271 µM.

The experiment is the same for the next values; noted with them: Table 1; compounds of Examples 1-28; one of two in vitro assay methods; Trifluoroacetate; read-out: p38α Kinase Inhibition (IC50 in μM).
Take `Clc1ccc(-c2n[nH]c([C@H]3CC[C@H](N4CCCCC4)CC3)c2-c2ccncn2)cc1` [Example 7, 4-[3-(4-chlorophenyl)-5-(4-piperidin-1-yl-cyclohexyl)-1H-pyrazol-4-yl]pyrimidine Trifluoroacetate]: the IC50 came out at 0.0238 µM.

Staying with this experiment, now noted: Table 1; compounds of Examples 1-28; one of two in vitro assay methods; read-out: p38α Kinase Inhibition (IC50 in μM).
Turning to `CN(C)CC(=O)OCC(=O)N1CCC(c2[nH]nc(-c3ccc(Cl)cc3)c2-c2ccncn2)CC1` [Example 25, 2-{4-[3-(4-chlorophenyl)-4-pyrimidin-4-yl-1H-pyrazol-5-yl]piperidin-1-yl}-2-oxoethyl N,N-dimethylglycinate Hydrochloride], the IC50 was found to be 0.0118 µM.

Turning to `C[C@@H](N[C@H]1CC[C@H](c2[nH]nc(-c3ccc(Cl)cc3)c2-c2ccncn2)CC1)c1ccc(F)cc1` [Example 5, 4-[3-(4-chlorophenyl)-4-pyrimidin-4-yl-1H-pyrazol-5-yl]-N-[(1R)-1-(4-fluorophenyl)ethyl]-trans-cyclohexanamine], the IC50 was determined as 0.0232 µM.

For the compound `OC1CCCC1N1CCC(c2[nH]nc(-c3ccc(Cl)cc3)c2-c2ccncn2)CC1` (centres unmarked) [Example 17, 2-{4-[3-(4-chlorophenyl)-4-pyrimidin-4-yl-1H-pyrazol-5-yl]piperidin-1-yl}cyclopentanol Fumarate], the IC50 was 0.0189 µM.

For the compound `O=C(COP(=O)(O)O)N1CCC(c2[nH]nc(-c3ccc(Cl)cc3)c2-c2ccncn2)CC1` [Example 22, 2-{4-[3-(4-chlorophenyl)-4-pyrimidin-4-yl-1H-pyrazol-5-yl]piperidin-1-yl}-2-oxoethyl Dihydrogen Phosphate], the IC50 was 0.00607 µM.

On to `O[C@H]1CC[C@H](c2[nH]nc(-c3ccc(Cl)cc3)c2-c2ccncn2)CC1` [Example 6, 4-[3-(4-chlorophenyl)-4-pyrimidin-4-yl-1H-pyrazol-5-yl]-trans-cyclohexanol], for which the IC50 came to 0.289 µM.

On to `Clc1ccc(-c2n[nH]c([C@H]3CC[C@H](NC4CCCCC4)CC3)c2-c2ccncn2)cc1` [Example 4], for which the IC50 is 0.0379 µM.

With `CC(C)(O)[C@H]1CC[C@H](c2[nH]nc(-c3ccc(Cl)cc3)c2-c2ccncn2)CC1` [Example 16, 2-{4-[3-(4-chlorophenyl)-4-pyrimidin-4-yl-1H-pyrazol-5-yl]cyclohexyl)propan-2-ol], the IC50 amounted to 0.0926 µM.

Still in this experiment, the particulars now being: Table 2; additional pyrazole compounds, Examples 56-169; read-out: p38α Kinase Inhibition (IC50 in μM).
Turning to `O=C(CO)N1CCC(c2[nH]nc(-c3ccc(F)cc3F)c2-c2ccncn2)CC1` [Example 67], the IC50 amounted to 0.248 µM.

Turning to `CC(C)(C)OC(=O)N1CCC(c2[nH]nc(-c3ccc(Cl)cc3)c2-c2ccnc(Oc3cccc(C#N)c3)n2)CC1` [Example 134], the IC50 was 1.59 µM.

As to `C[C@@H](N[C@H]1CC[C@@H](c2[nH]nc(-c3ccc(Cl)cc3)c2-c2ccncn2)CC1)c1ccc(F)cc1` [Example 126], the concentration for half-maximal inhibition (IC50) was 0.13 µM.

For `O=C(CO)N1CCC(c2[nH]nc(-c3cc(Cl)ccc3F)c2-c2ccncn2)CC1` [Example 105], the concentration for half-maximal inhibition (IC50) was 0.247 µM.

`CN(C)CCNc1nccc(-c2c(-c3ccc(Cl)cc3F)n[nH]c2C2CCN(C(=O)OC(C)(C)C)CC2)n1` [Example 160]: the IC50 amounted to 4.4 µM.

On to `CN1CCC(c2[nH]nc(-c3ccc(Cl)cc3)c2-c2ccnc(NC3CCN(Cc4ccccc4)CC3)n2)CC1` [Example 152], for which the 50% inhibitory concentration (IC50) stood at 0.075 µM.

As for `O=C(CO)N1CCC(c2[nH]nc(-c3cc(F)ccc3F)c2-c2ccncn2)CC1` [Example 87], the IC50 worked out at 1.75 µM.

Take `O=C(CO)N1CCC(c2[nH]nc(-c3cccc(C(F)(F)F)c3F)c2-c2ccncn2)CC1` [Example 103]: the 50% inhibitory concentration (IC50) turned out to be 5.46 µM.

`CN1CCC(c2[nH]nc(-c3ccc(Cl)cc3F)c2-c2ccnc(NC3CCCC3)n2)CC1` [Example 168]: the concentration for half-maximal inhibition (IC50) is 1 µM.

On to `COc1cc(Cl)ccc1-c1n[nH]c(C2CCN(C(=O)CO)CC2)c1-c1ccncn1` [Example 79], for which the half-inhibitory concentration (IC50) is 19.3 µM.

Consider `Fc1cc(Cl)ccc1-c1n[nH]c(C2CCNCC2)c1-c1ccnc(NC2CCCC2)n1` [Example 147], for which the IC50 was 0.0159 µM.

Consider `C[C@@H](O)C(=O)N1CCC(c2[nH]nc(-c3cccc(Cl)c3F)c2-c2ccncn2)CC1` [Example 114], for which the IC50 was determined as 0.411 µM.

As for `O=C(CO)N1CCC(c2[nH]nc(-c3cc(F)cc(F)c3)c2-c2ccncn2)CC1` [Example 76], the IC50 came out at 6.2 µM.

In the case of `CN(C)CCOc1nccc(-c2c(-c3ccc(F)c(C(F)(F)F)c3)n[nH]c2C2CCNCC2)n1` [Example 155], the IC50 was found to be 0.527 µM.

Consider `CN(C)CCOc1nccc(-c2c(-c3ccc(Cl)cc3F)n[nH]c2C2CCN(C(=O)CO)CC2)n1` [Example 157], for which the IC50 was 1.07 µM and 0.847 µM.

As for `C[C@H](O)C(=O)N1CCC(c2[nH]nc(-c3ccc(Cl)cc3F)c2-c2ccncn2)CC1` [Example 107], the IC50 is 0.0777 µM.

With `O=C(CO)N1CCC(c2[nH]nc(-c3ccc(Cl)c(Cl)c3)c2-c2ccncn2)CC1` [Example 69], the IC50 turned out to be 0.133 µM.

With `O=C(CO)N1CCC(c2[nH]nc(-c3ccc(Cl)cc3F)c2-c2ccnc(NC3CCCC3)n2)CC1` [Example 154], the concentration for half-maximal inhibition (IC50) was found to be 0.0176 µM.

For the compound `CN(C)CC(=O)OCC(=O)N1CCC(c2[nH]nc(-c3ccc(Cl)cc3)c2-c2ccncn2)CC1` [Example 130], the IC50 was 0.0438 µM.

Take `O=C(CO)N1CCC(c2[nH]nc(-c3ccc(Cl)cc3)c2-c2ccnc(NC3CCN(Cc4ccccc4)CC3)n2)CC1` [Example 151]: the half-inhibitory concentration (IC50) was determined as 0.053 µM.

As for `C[C@H](O)C(=O)N1CCC(c2[nH]nc(-c3cc(C(F)(F)F)ccc3F)c2-c2ccncn2)CC1` [Example 111], the IC50 was 0.438 µM.

As to `C[C@H](O)C(=O)N1CCC(c2[nH]nc(-c3cc(F)cc(Cl)c3)c2-c2ccncn2)CC1` [Example 108], the IC50 was found to be 1.62 µM.

In the case of `FC(F)(F)c1cc(-c2n[nH]c(C3CCNCC3)c2-c2ccnc(NC3CCCC3)n2)ccc1NC1CCCC1` [Example 165], the concentration for half-maximal inhibition (IC50) amounted to 0.424 µM.

`CC(C)(C)OC(=O)N1CCC(c2[nH]nc(-c3ccc(Cl)cc3)c2-c2ccnc(OC3CCCC3)n2)CC1` [Example 131]: the IC50 turned out to be 1.68 µM.

Consider `CN(C)CCOc1nccc(-c2c(-c3ccc(F)c(C(F)(F)F)c3)n[nH]c2C2CCN(C(=O)CO)CC2)n1` [Example 139], for which the IC50 came to 0.854 µM.

Consider `O=C(CO)N1CCC(c2[nH]nc(-c3ccc(F)c(C(F)(F)F)c3)c2-c2ccnc(NC3CCCC3)n2)CC1` [Example 169], for which the IC50 came out at 0.0032 µM.

In the case of `CN(C)CCNc1nccc(-c2c(-c3ccc(Cl)cc3)n[nH]c2C2CCN(C(=O)OC(C)(C)C)CC2)n1` [Example 143], the IC50 turned out to be 3.64 µM.

Consider `N#Cc1ccc(Oc2nccc(-c3c(-c4ccc(Cl)cc4)n[nH]c3C3CCN(C(=O)CO)CC3)n2)cc1` [Example 94], for which the half-inhibitory concentration (IC50) came to 0.108 µM.

Consider `C[C@@H](O)C(=O)N1CCC(c2[nH]nc(-c3ccc(Cl)cc3F)c2-c2ccncn2)CC1` [Example 113], for which the half-maximal inhibitory concentration (IC50) was found to be 0.207 µM.

On to `CN(C)CCNc1nccc(-c2c(-c3cccc(Cl)c3)n[nH]c2C2CCN(C(=O)OC(C)(C)C)CC2)n1` [Example 145], for which the IC50 worked out at 4.1 µM.

Regarding `C[C@@H](N[C@H]1CC[C@H](c2[nH]nc(-c3ccc(Cl)cc3)c2-c2ccncn2)CC1)c1ccccc1` [Example 123], the IC50 was 0.0427 µM.
